Data on 16 compounds can be found in PMC11204085, “Molecular Characterization of Chemosensory Protein (CSP) Genes and the Involvement of AgifCSP5 in the Perception of Host Location in the Aphid Parasitoid Aphidius gifuensis” (International Journal of Molecular Sciences, 2024).

“Also recorded” adds a separate entry of the source. Read-outs that look alike come from different tables or passages of the source.

One test deals with AgifCSP5 (Aphidius gifuensis, UniProt A0A3Q9ELG9). The test can be described thus: Fluorescence competitive binding assay with 1-NPN probe, wild-type AgifCSP5. To be noted: for Binding affinity in words: wild-type AgifCSP5. The text has this: (§1) The candidate VOCs were mainly derived from various organic volatiles in wheat field habitats, referring to the compounds related to wheat plants and wheat aphids previously reported in a published paper by Jiang et al. in 2022 and 2023 [11, 12], including four groups of ligands: (1) aphid alarm pheromone components; (2) aphid sex pheromone; (3) green leaf volatiles of wheat; and (4) aphid-induced plant volatiles. […] The classes, CAS numbers, and purities of the chemicals used in these assays are listed in Appendix B. A Lengguang 970CRT spectrofluorimeter (Shanghai Jingmi, Shanghai, China) equipped with a 1 cm light path fluorimeter quartz cuvette was used to record the fluorescence intensity at room temperature with the following parameters: the excitation wavelength was set at 337 nm, the emission light wavelength was recorded at 350–500 nm, the high-speed scan mode was used, and the slit width was 10 nm. To determine the binding affinity of 1-NPN for AgifCSP5 proteins, a 2 µM protein solution diluted with 50 mM Tris-HCl at pH 7.4 was titrated with aliquots of the 1 mM 1-NPN stock solution to final concentrations ranging from 2–40 μM. Ligands bound to AgifCSP5 have a protein:ligand ratio of 1:1. Three independent repeats were carried out for all measurements. The binding affinity of AgifCSP5 for all ligands was calculated by the formula Ki = [IC50]/(1 + [1 − NPN]/K1-NPN), where the IC50 is defined as the concentration of a competitor that caused a 50% reduction in fluorescence intensity, K1-NPN is the dissociation constant (Kd) of the AgifCSP5/1-NPN complex, and [1-NPN] is the free concentration of 1-NPN.

For the next test, the target named is R24A mutant of AgifCSP5 (Aphidius gifuensis, UniProt A0A3Q9ELG9, R44A). The test is described as follows: Fluorescence competitive binding assay, R24A mutant. To be noted: for Binding affinity of R24A compared with wild type, in words: R24A mutant.
Description: as §1
(§2) The mutagenesis primers for the targeted key amino acid residues were designed online (https://crm.vazyme.com/cetool/singlepoint.html (accessed on 24 December 2023)) according to the protocols of the Mut Express II Fast Mutagenesis Kit V2 (Vazyme, China) (Appendix B). Mutations were obtained by using Phanta Max Superfidelity DNA Polymerase with recombinant Plasmid pET-30a/AgifCSP5 plasmid DNA as a template. The plasmids of the mutants were verified by DNA sequencing. The mutated proteins were then expressed and purified, as described above. After protein concentration determination, the binding affinities of the mutants with ligands that previously bound well to the AgifCSP5 protein were verified using fluorescence competitive binding assays.

The next test concerns the target Y75A mutant of AgifCSP5 (Aphidius gifuensis, UniProt A0A3Q9ELG9, Y95A). The test is described as follows: Fluorescence competitive binding assay, Y75A mutant.
Description: as §1, §2

A further test relates to A. gifuensis adults. The test is described as follows: Y-tube olfactometer assay. The class given is in vivo, Aphidius gifuensis. The protocol:
The behavioral responses of A. gifuensis to volatiles were tested using a Y-tube olfactometer (3.5 cm in diameter, arms 20 cm in length, and a stem 20 cm in length). The assay method was described by Guo et al., and minor improvements were made. The incoming air at a constant flow (300 mL/min) was first filtered using allochroic silica gel and activated carbon and then humidified with ultrapure water. The test compounds were serially diluted with paraffin oil to concentrations of 0.01, 0.1, 1, 10, and 100mg/mL. A total of 10 μL of tested volatile oil preloaded onto 1 cm diameter filter paper was placed in the chamber of the chosen treatment arm of the Y-tube olfactometer, and the same filter paper in another chamber of the chosen control arm was loaded with 10 μL of liquid paraffin. The choice of each adult introduced into the Y-tube stem within 5 min was recorded. The experiments were performed in a dark room at room temperature (25 ± 1 °C), and a light-emitting diode installed at 30 cm was used as the light source. In total, no fewer than 60 adults (at least 30 from each sex) were used in each treatment. After 5 insects were tested, we switched the positions of the volatile arm and the control arm, and after a total of 10 insects were tested, the Y-tube olfactometer was washed with 75% ethanol and air-dried.

Sequence of Y75A mutant of AgifCSP5 (A0A3Q9ELG9 entry or part of it Y95A): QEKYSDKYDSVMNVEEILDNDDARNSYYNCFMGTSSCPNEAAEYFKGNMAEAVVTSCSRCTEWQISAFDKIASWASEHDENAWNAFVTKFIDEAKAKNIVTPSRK
Sequence of AgifCSP5 (A0A3Q9ELG9 entry or part of it): as the sequence (A0A3Q9ELG9 entry or part of it Y95A) above, with A75Y counted along it
Sequence of R24A mutant of AgifCSP5 (A0A3Q9ELG9 entry or part of it R44A): as the sequence (A0A3Q9ELG9 entry or part of it Y95A) above, with R24A, A75Y counted along it

For `C=CC(C)(O)CCC=C(C)C` (stereo not drawn) [Linalool], on AgifCSP5, the IC50 was 25.5 ± 3.46 µM and affinity was put at a Ki of 18.9 ± 2.56 µM.

On to `CC/C=C\CC1C(=O)CCC1CC(=O)OC` (stereo not drawn) [Methyl jasmonate], for which, at R24A mutant of AgifCSP5, the IC50 was found to be 8.89 ± 0.95 µM; the affinity, expressed as Ki, was 8.16 ± 0.87 µM; the “Binding affinity of R24A compared with wild type, in words” value is reported as “increased the binding affinity; also recorded: increased affinities”. At Y75A mutant of AgifCSP5, the IC50 is 29.7 ± 1.06 µM and the inhibition constant (Ki) is 21.1 ± 0.75 µM. Also, at AgifCSP5, the IC50 amounted to 20.1 ± 1.92 µM and the affinity corresponds to a Ki of 14.9 ± 1.42 µM.

As to `COC(=O)c1ccccc1O` [Methyl salicylate], at AgifCSP5, the IC50 was 20.6 ± 3.58 µM and affinity was put at a Ki of 15.3 ± 2.65 µM.

At AgifCSP5, `C=CC(=C)CCC=C(C)C` [Myrcene] had an IC50 of 22.5 ± 2.51 µM and a Ki of 16.7 ± 1.86 µM.

As for `CC1=COC(=O)C2C(C)CCC12` (stereo not drawn) [Nepetalactone], the “Binding affinity in words” value was “weakly binds” at AgifCSP5 and “weak binding affinities” on AgifCSP5 (listed as nephelactone). In addition, the IC50 on AgifCSP5 (wild-type AgifCSP5, 1-NPN displacement, pH 7.4, read-out: IC50) came to 33.8 ± 6.81 µM. In addition, the Ki on AgifCSP5 (wild-type AgifCSP5, 1-NPN displacement, pH 7.4, read-out: Ki) was determined as 25 µM.

As for `CCCCCCCCCCCCCCCCCCC` [Nonadecane], on AgifCSP5, the IC50 was determined as 38.9 ± 7.44 µM and the Ki amounted to 28.8 ± 5.51 µM.

With `C=C1CCC2(C(C)C)CC12` (stereo not drawn) [Sabinene], the IC50 on R24A mutant of AgifCSP5 stood at 22.4 ± 14.6 µM; on Y75A mutant of AgifCSP5 it was 26.2 ± 11.6 µM; at AgifCSP5, 16.4 ± 0.94 µM. Moreover, the values for the inhibitory constant (Ki) on R24A mutant of AgifCSP5, on Y75A mutant of AgifCSP5 and at AgifCSP5 were 20.6 ± 13.4 µM, 18.6 ± 8.23 µM and 12.1 ± 0.69 µM, respectively. Besides, the “Behavioral response in words” value is reported as “significantly repelled only males” in the test on A. gifuensis adults (10 mg/mL), “significantly repelled; also recorded: repellent effects” in the test on A. gifuensis adults (100 mg/mL) and “did not show any repelling or attracting activity” in the test with A. gifuensis adults (low concentrations).

Take `CCCCCCCCCCCCCC=O` [Tetradecanal]: the “Binding affinity of R24A compared with wild type, in words” value on R24A mutant of AgifCSP5 is “increased the binding affinity”. At AgifCSP5, this compound came in with an IC50 of 20.6 ± 2.11 µM and an inhibition constant Ki of 15.3 ± 1.57 µM.

Take `CCCCCCCCCCCCC` [Tridecane]: the IC50 on AgifCSP5 is greater than 40 µM.

In the case of `CCC/C=C\CO` [cis-2-Hexen-1-ol], at AgifCSP5, the IC50 was determined as 34.5 ± 2.09 µM and the Ki was 25.6 ± 1.55 µM.

At AgifCSP5, `CC/C=C\CCO` [cis-3-Hexen-1-ol] returned an IC50 of 23.4 ± 5.54 µM and a Ki of 17.3 ± 4.1 µM.

On AgifCSP5, `CC/C=C\CC=O` [cis-3-Hexenal] came in with an IC50 of 29.8 ± 1.55 µM and a Ki of 22 ± 1.15 µM.

At AgifCSP5, `CC/C=C\CCOC(C)=O` [cis-3-Hexenyl acetate] registered an IC50 of 24.5 ± 0.49 µM and an inhibition constant Ki of 18.2 ± 0.36 µM.

As to `CCCC/C=C\CCO` [cis-3-Octen-1-ol], the values for the IC50 on R24A mutant of AgifCSP5, on Y75A mutant of AgifCSP5 and at AgifCSP5 were 18.9 ± 9.83 µM, 22.9 ± 6.68 µM and 17 ± 1.08 µM, respectively. For the same compound, the Ki amounted to 17.4 ± 9.03 µM at R24A mutant of AgifCSP5, 16.3 ± 4.75 µM at Y75A mutant of AgifCSP5 and 12.6 ± 0.8 µM on AgifCSP5. Also, the entries for the “Behavioral response in words” value in the test on A. gifuensis adults (10 mg/mL), in the test with A. gifuensis adults (100 mg/mL) and with A. gifuensis adults (low concentrations) were “significantly repelled only males”, “significantly repelled; also recorded: repellent effects” and “did not show any repelling or attracting activity”, respectively.

`CCC/C=C/C=O` [trans-2-Hexen-1-al]: the values for the IC50 on R24A mutant of AgifCSP5, at Y75A mutant of AgifCSP5 and at AgifCSP5 were 15 ± 8.09 µM, 14.6 ± 5.42 µM and 18.1 ± 1.18 µM, respectively. For the same compound, the results for the Ki at R24A mutant of AgifCSP5, on Y75A mutant of AgifCSP5 and on AgifCSP5 were 13.8 ± 7.43 µM, 10.4 ± 3.85 µM and 13.4 ± 0.87 µM, respectively. The “Behavioral response in words” value with A. gifuensis adults (10 mg/mL) is listed as “obviously repelled”; with A. gifuensis adults (100 mg/mL), “significantly repelled; also recorded: repellent effects”; with A. gifuensis adults (100 mg/mL, listed as trans-2-hexenal) it was “strongly repelled”; in the test on A. gifuensis adults (low concentrations), “did not show any repelling or attracting activity”.

`CCCCCC/C=C/C=O` [trans-2-Nonenal]: the IC50 at R24A mutant of AgifCSP5 is 25.9 ± 16.4 µM; on Y75A mutant of AgifCSP5 it was greater than 40 µM; on AgifCSP5, 16.6 ± 1.78 µM. Further, the results for the Ki on R24A mutant of AgifCSP5 and at AgifCSP5 were 23.7 ± 15 µM and 12.3 ± 1.31 µM, respectively. Besides, the “Behavioral response in words” value with A. gifuensis adults (10 mg/mL) is given as “significantly attracted only female adults; also recorded: attractive”; with A. gifuensis adults (100 mg/mL), “significantly repelled”.

One may read the IC50 as the midpoint of a concentration-inhibition curve. What is called Ki is the equilibrium dissociation constant of an inhibitor or competing ligand from its target.
